# Assay results published in US4432973A, “Benzoyl- and α-hydroxybenzyl-phenyl-glycosides and application thereof in therapeutics” (Societe de Recherches Industrielles (S.O.R.I.), priority 1980, dated 1984).
# Legend:
# [1] = Acute toxicity in the mouse by the I.P. route; format: in vivo; settings: for LD50: read-out: DL-50 (lethal dose involving the death of half of the animals)
# Excerpt: The acute toxicity was studied in the mouse by the I.P. route. It is expressed in the form of DL-50 (lethal dose involving the death of half of the animals) or DL-0 (maximum non-lethal dose).
# [2] = Veinous thrombosis: veinous anti-thrombus activity; format: in vivo; settings: Rattus norvegicus, ip, 50 mg/kg IP, 4 to 5 hours after administration, read-out: Diminution of veinous thrombus
# [3] = Anti-ulcer activity: ulcer caused by aspirin; format: in vivo, rat (male Wistar); settings: 100 mg/kg I.P.; aspirin 192 mg/kg per os; standardised to control batch and cimetidine (index 1)
# In short: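 Male Wistar rats weighing 180 to 200 g were fasted from t=0, when they received a first dose of the test product. At t=18 hours they were given 2 ml of an ulcer-forming suspension of aspirin at 192 mg/kg per os, followed by a second dose of the product. At t=22 hours the animals were sacrificed and their ulcers graded: 1 for small point-like, 3 for more extensive, 9 for highly extensive or very deep. Scores were standardised against a control batch and against cimetidine, the reference, assigned index 1.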
# [4] = test system: blood platelet aggregation; test: Spontaneous aggregation: blood platelet anti-aggregation activity; format: in vivo, rat (adult male); settings: Platelet, ip; 100 mg/kg I.P., t=5 hours, rat
# Experimental: The technique used is that of Sanders described in Laboratory Animal Science 27 (No. 5), pages 757-761 (1977).
# After administration at 100 mg/kg I.P. (unless specified to the contrary in Table V hereinbelow) of the product to be tested to adult male reproducing rats, two blood samples are taken, one on sodium citrate and the other on sodium citrate treated with formaldehyde at instant t=5 hours.
# After centrifugation of the samples, a platelet count is made on the supernatant liquid. The spontaneous aggregation index according to Wu and Hook Stroke 6, 521-524 (1975) is expressed by the relation: [formula]
# [5] = Veinous thrombosis: veinous anti-thrombus activity; format: in vivo; settings: Rattus norvegicus, ip, 100 mg/kg I.P., 4 to 5 hours after administration, read-out: Diminution of veinous thrombus
# Experimental: The technique used is similar to the one described by Peterson-Zucker in Thrombo.Diath.Haemorh. 23, 1, (1970).
# An occlusive thrombus is created in the […] vena cava of a rat by the combined action of an endothelial alteration and a veinous stasis for 15 mins. and 4 to 5 hours after administration of the product to be tested (100 mg/kg I.P.).
# [6] = Anti-hypoxic activity: survival to hypoxia (nitrogen-oxygen 95:5); format: in vivo, mouse (Swiss male); settings: I.P., 1/10th of LD-50 or 100 mg/kg when LD-0 ≥ 800 mg/kg; up to 15 minutes; mouse
# In short: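 Groups of 20 male Swiss mice (20–30 g) received compound i.p. at 1/10 LD-50, or 100 mg/kg when LD-0 ≥800 mg/kg, then were placed in nitrogen-oxygen 95:5 v/v. Survival time was recorded up to 15 min and expressed as % survival versus untreated controls; Duxil reference given at 18 mg/kg i.p.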
Compound,"LD50 ([1]; in vivo, ip, I.P.) [mg/kg]",inhibition in vivo at 50 mg/kg [2] [%],"DL-0 (maximum non-lethal dose) ([1]; in vivo, ip) [mg/kg IP]",Ulcer index [3],inhibition in vivo at 100 mg/kg [4] [%],inhibition in vivo at 100 mg/kg [5] [%],Survival (survival percentage to hypoxic aggression) [6],DL-0 (maximum non-lethal dose) ([1]; I.P.) [mg/kg IP]
"Cc1ccc(C(O)c2cccc(O[C@@H]3OC[C@@H](O)[C@H](O)[C@H]3O)c2)cc1 (single isomer, unassigned) [Example 106]",500,≥ 50,,,,,,
Nc1ccc(C(=O)c2ccc(O[C@@H]3OC[C@@H](O)[C@H](O)[C@H]3O)cc2)cc1 [Example 8],,,> 800,0.25,≥ 40,≥ 50,+++ (higher than or equal to 80%),
"CC(=O)N[C@H]1[C@H](Oc2ccc(C(=O)c3ccc(Cl)cc3)cc2)O[C@H](COS(=O)(=O)O)[C@@H](OS(=O)(=O)O)[C@@H]1OS(=O)(=O)O [Example 67, [4-(4-chlorobenzoyl)-phenyl]-3,4,6-tri-(ammonium-sulfate)-2-N-acetyl-β-D-glucosaminide]",,,,0.81,25 to 39,30 to 49,,> 800
"O=[N+]([O-])c1ccc(C(O)c2ccc(O[C@@H]3OC[C@@H](O)[C@H](O)[C@H]3O)cc2)cc1 (stereo partly drawn) [Example 97, [4-(4-nitro-α-hydroxybenzyl)-phenyl]-β-D-xylopyranoside]",> 1000,,,0.52,≥ 40,≥ 50,,
Cc1cc(C(=O)c2ccccc2Cl)cc(C)c1O[C@@H]1OC[C@@H](O)[C@H](O)[C@H]1O [Example 102],,,> 800,0.49,≥ 40,30 to 49,+++ (higher than or equal to 80%),
